Values of other authors as cited in US20260199417A1, “OPHTHALMIC FORMULATION FOR TOPICAL USE CONTAINING HELENALIN, 11A,13-DIHYDRO HELENALIN AND FLAVONOIDS FROM ARNICA MONTANA EXTRACT AND SODIUM HYALURONATE, AND USE THEREOF BY HUMANS TO TREAT DRY EYE SYNDROME” (CENTRO DE RETINA MÉDICA Y QUIRÚRGICA, S.C., priority 2022, published 2026).

System: NF kappa-B
Settings: T cells, B cells, and epithelial cells

Row | Compound | Activation of NF kappa-B
1 | C[C@@H]1C[C@H]2OC(=O)[C@@H](C)[C@H]2[C@H](O)[C@]2(C)C(=O)C=C[C@@H]12 [11-α, 13-dihydrohelenalin] | inhibited
2 | C=C1C(=O)O[C@@H]2C[C@@H](C)[C@@H]3C=CC(=O)[C@@]3(C)[C@@H](O)[C@H]12 [helenalin] | inhibited
